Measurements as given in patent US7855292B2, “Sulfonamide compounds” (Janssen Pharmaceutica NV, priority 2004, dated 2010).

How the values were obtained:
CCK2 receptor [1] = target: T1, CCK2 receptor (Cavia porcellus, UniProt H0VZC5); test: Guinea-pig gastric corpeal muscle assay (pentagastrin-induced contraction); settings: isolated guinea-pig gastric corpeal muscle strips, pentagastrin concentration-response curves
T1 construct: strips of muscle were dissected and suspended in isolated tissue organ baths; from tissue; host or cells: guinea-pig gastric corpeal muscle strips
T1 sequence (H0VZC5 1-426): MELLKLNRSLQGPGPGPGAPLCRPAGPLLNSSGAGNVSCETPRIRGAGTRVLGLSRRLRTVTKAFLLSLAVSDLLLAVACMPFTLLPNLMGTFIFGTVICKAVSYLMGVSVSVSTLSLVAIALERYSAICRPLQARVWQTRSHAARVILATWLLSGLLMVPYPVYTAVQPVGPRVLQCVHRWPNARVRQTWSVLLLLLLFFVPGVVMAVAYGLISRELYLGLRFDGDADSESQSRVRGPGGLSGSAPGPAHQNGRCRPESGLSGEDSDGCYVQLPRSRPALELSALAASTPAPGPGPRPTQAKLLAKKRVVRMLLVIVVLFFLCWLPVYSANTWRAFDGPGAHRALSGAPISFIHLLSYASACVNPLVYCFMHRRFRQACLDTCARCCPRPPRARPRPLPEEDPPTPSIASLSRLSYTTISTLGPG
Procedure: B. Guinea-Pig Gastric Corpeal Muscle Assay
CCK2 receptor-mediated muscle contraction was measured in an isolated muscle-strip assay of guinea-pig gastric corpeal muscle according to the methods described by Roberts et al. (S. P. Roberts, E. A. Harper, G. F. Watt, V. P. Gerskowitch, R. A. Hull, N. P. Shankley, and J. W. Black, Br. J. Pharmacol., 1996, 118(7):1779-1789). In brief, strips of muscle were dissected and suspended in isolated tissue organ baths for isotonic muscle contraction recording. The baths, containing Krebs-Henseleit solution, were maintained at 24° C. and gassed continuously with 95% O2 and 5% CO2. CCK1 receptors known to be present in this assay were blocked using a selective concentration of a suitable CCK1 receptor antagonist (e.g. 2-NAP). The effectiveness of the test compounds was assessed by measuring their effect on contractile concentration-response curves obtained using a well-characterized surrogate for the hormone gastrin (pentagastrin).

CCK2 receptor [2] = target: T2, CCK2 receptor (Homo sapiens, UniProt P32239); test: CCK2 binding assay ([125I]-BH-CCK-8S displacement, HEKZFP membranes); settings: membranes of doxycycline-induced HEKZFP cells; 20 pM [125I]-BH-CCK-8S; 60 min at 21±3° C.; read-out: CCK2 pKi (converted)
T2 construct: analyzed for ZFP expression as well as CCK2R induction upon addition of doxycycline to the culture medium; endogenous in cells
T2 sequence (P32239 1-447): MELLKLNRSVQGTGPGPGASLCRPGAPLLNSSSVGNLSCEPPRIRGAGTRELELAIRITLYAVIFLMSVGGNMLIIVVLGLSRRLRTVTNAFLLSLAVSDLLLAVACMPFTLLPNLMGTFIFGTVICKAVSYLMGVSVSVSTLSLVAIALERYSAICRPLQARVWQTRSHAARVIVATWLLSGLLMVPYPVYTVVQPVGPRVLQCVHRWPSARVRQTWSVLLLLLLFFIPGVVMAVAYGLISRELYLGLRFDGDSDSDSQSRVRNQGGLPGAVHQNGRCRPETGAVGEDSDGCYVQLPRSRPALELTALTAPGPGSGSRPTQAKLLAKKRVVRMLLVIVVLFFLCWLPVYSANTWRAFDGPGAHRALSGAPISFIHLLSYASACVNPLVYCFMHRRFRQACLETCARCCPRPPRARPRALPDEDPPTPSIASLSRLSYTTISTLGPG

O=C(N[C@@H](Cc1ccc(Cl)c(Cl)c1)C(=O)O)c1ccc(I)cc1NS(=O)(=O)c1cccc2nsnc12 [Example 2, (S)-2-[2-(Benzo[1,2,5]thiadiazole-4-sulfonylamino)-4-iodo-benzoylamino]-3-(3,4-dichloro-phenyl)-propionic acid]
behaviour in the muscle contraction assay (mode of antagonism) (CCK2 receptor [1]): competitive antagonist
Kb (CCK2 receptor [1]; CCK1 receptors blocked (e.g. 2-NAP), 24° C.): 1.58 nM
Ki (CCK2 receptor [2]): 31.6 nM
